According to patent US20250127912A1, “COMPOSITIONS FOR DELIVERY OF POLYNUCLEOTIDES” (miRecule, Inc., priority 2021, published 2025):
No end group written: not given here. PEG1000 = N-terminal 1 kDa PEG spacer; PEG5000 = N-terminal 5 kDa PEG spacer; PEG2000 = PEG polymer of 2000 Da

Key:
[1] = Serum stability of miRNA mimic M30m3 alone or with cationic peptide/hybrid polymer in 5% human serum (TBE-urea gel); details: calculated based on first order decay comparing two time points; for Serum Stability at N/P1: M30m3 with polymer at N/P charge ratio 1, 37 C; for Serum Stability at N/P2: M30m3 with polymer at N/P charge ratio 2, 37 C
Procedure: miRNA mimic M30m3 alone or with a cationic peptide or a hybrid polymer at N/P charge ratios of 1 or 2 were incubated with 5% human serum at 37° C. and samples were collected at t=0, 1 hr, 4 hrs, 20 hrs and 24 hrs (1 day). Upon collection, samples were mixed with sample loading buffer containing urea, bromophenol blue, xylene cylanol and nuclease inhibitor. Samples were then reduced, heated to 95° C. for 30 minutes, run on a TBE-urea gel and then stained for oligo using sybergold.
miRNA mimic M30m3 alone or with a cationic peptide or a hybrid polymer at N/P charge ratios of 1 or 2 were incubated with 5% human serum at 37° C. and samples were collected t=0 hr, 1 hr, 4 hrs, 8 hrs and 18 hrs (ns=no serum). Upon collection, samples were mixed with sample loading buffer containing urea, bromophenol blue, xylene cylanol and nuclease inhibitor. Samples were then reduced, heated to 95° C. for 30 minutes, run on a TBE-urea gel and then stained for oligo using sybergold.
miRNA mimic M30m3 alone or with a cationic peptide or a hybrid polymer at N/P charge ratios of 1 or 2 were incubated with 5% human serum at 37° C. and samples were collected at t=0 hr, 5 hrs, and 30 hrs (ns=no serum). Upon collection, samples were mixed with sample loading buffer containing urea, bromophenol blue, xylene cylanol and nuclease inhibitor. Samples were then reduced, heated to 95° C. for 30 minutes, run on a TBE-urea gel and then stained for oligo using sybergold.
miRNA mimic M30m3 alone or with a cationic peptide or a hybrid polymer at N/P charge ratios of 1 or 2 were incubated with 5% human serum at 37° C. and samples were collected at t=0 hr, 4 hrs, and 24 hrs. Upon collection, samples were mixed with sample loading buffer containing urea, bromophenol blue, xylene cylanol and nuclease inhibitor. Samples were then reduced, heated to 95° C. for 30 minutes, run on a TBE-urea gel and then stained for oligo using sybergold.

[2] = Biodistribution of IR750-NCD5 cetuximab conjugates in mice with orthotopic UM-SCC-1^luc tumors; details: 5 mg/kg IR750-NCD5 cetuximab conjugate, N/P of 1; 24 and 48 hours

Compound	Serum Stability at N/P1 [1] [h]	Serum Stability at N/P2 [1] [h]	delivery to the tumor (IR-750 fluorescence) [2]	liver and kidney delivery (IR-750 fluorescence) [2]
N=C(N)NCCCCN [Agmatine, reference compound]	20.78	17.33		
N=C(N)NCCC[C@H](N)C(=O)O [Arginine, reference compound]	7.179	12.26		
N=C(N)NCCC[C@H](NC(=O)[C@H](CCCNC(=N)N)NC(=O)[C@H](CCCNC(=N)N)NC(=O)[C@H](CCCNC(=N)N)NC(=O)[C@H](CCCNC(=N)N)NC(=O)[C@H](CCCNC(=N)N)NC(=O)[C@H](CCCNC(=N)N)NC(=O)[C@H](CCCNC(=N)N)NC(=O)[C@H](CCCNC(=N)N)NC(=O)[C@H](CCCNC(=N)N)NC(=O)[C@H](CCCNC(=N)N)NC(=O)[C@H](CCCNC(=N)N)NC(=O)[C@@H](N)CS)C(=O)N[C@@H](CS)C(=O)O [CPolyArg12C]	34.91	18.1		
NC(N)=NCCC[C@H](NC(=O)[C@H](CCCN=C(N)N)NC(=O)[C@H](CCCN=C(N)N)NC(=O)[C@H](CCCN=C(N)N)NC(=O)[C@H](CCCN=C(N)N)NC(=O)[C@@H](N)CCCN=C(N)N)C(=O)O [PolyArg6, RRRRRR]	26.74	22.23		
N=C(N)NCCC[C@H](NC(=O)[C@H](CCCNC(=N)N)NC(=O)[C@H](CCCNC(=N)N)NC(=O)[C@H](CCCNC(=N)N)NC(=O)[C@H](CCCNC(=N)N)NC(=O)[C@H](CCCNC(=N)N)NC(=O)[C@H](CCCNC(=N)N)NC(=O)[C@H](CCCNC(=N)N)NC(=O)[C@H](CCCNC(=N)N)NC(=O)[C@H](CCCNC(=N)N)NC(=O)[C@H](CCCNC(=N)N)NC(=O)[C@@H](N)CCCNC(=N)N)C(=O)N[C@@H](CS)C(=O)O [PolyArg12C]	25.99	31.12		
NCCCNCCCCNCCCN [Spermine, reference compound]	18.95	12.98		
M048 Alone: miR-30 mimic duplex M30m3 without polymer; guide SEQ ID NO: 38, passenger SEQ ID NO: 39 (guide UGUAAACAUCCUGCGACUGGAAG; sense UCCAGUCGAGGAUGUUUACA; modified_base 11 cm; modified_base 14 cm; modified_base 17 cm; modified_base 12 um; modified_base 18 um; modified_base 13 gm; modified_base 15 gm; modified_base 19 gm; modified_base 23 gm; modified_base 16 OTHER; 2'-O-methyladenosine; modified_base 22 OTHER; 2'-fluoroadenosine; misc_feature 21..22 phosphorothioate linkage; misc_feature 22..23 phosphorothioate linkage; misc_feature 1 amino C6 linker; modified_base 1 um; modified_base 2 cm; modified_base 3 cm; modified_base 19 cm; modified_base 18 OTHER; modified_base 20 OTHER)	21.57			
RRRRRRRRRRRR-[NHS Ester-BranchedPEG2kda] [PolyArg12bp2kDa]	19.96	19.2		
RTRRTRRTRRTRRTRRTR [PolyArg12Tinsert]	19.21	16.9		
TTTTTTRRRRRRRRRRRR [T6PolyArg12]	25.6	18.06		
[PEG12]RRRRRR [PEG12PolyArg6]	19.74	27.96		
[PEG12]RRRRRRRRRRRR (N-terminal PEG12; MOD_RES 1 N-terminal PEG12 spacer) [PEG12PolyArg12]			markedly improves delivery to the tumor	reduces liver and kidney delivery
[PEG12]RdRdRdRdRdRdRdRdRd [PEG12PolyArg9d]	24.7	29.03		
[PEG12]RdRdRdRdRdRdRdRdRdRdRdRd (RRRRRRRRRRRR; N-terminal PEG12; D-arginines; MOD_RES 1 N-terminal PEG12 spacer; MOD_RES 1..12 D-Arginine) [PEG12PolyArg12{d}]	57.63	90.35		
[PEG12][PEG12]RRRRRRRRRRRR (N-terminal PEG24; MOD_RES 1 N-terminal PEG24 spacer) [PEP24PolyArg12]	21.21	39.41		
[PEG1000]-RRRRRRRRRRRR (PEG1000-RRRRRRRRRRRR) [PEG1000DaPolyArg12]	33.58	20.29		
[PEG2000]-RRRRRRRRRRRR (PEG2000-RRRRRRRRRRRR) [PEG2000DaPolyArg12]	15	46.67		
[PEG5000]-RRRRRRRRRRRR (PEG5000-RRRRRRRRRRRR) [PEG5000DaPolyArg12]	14.08	20.91		
